20 compounds from patent US20240238212A1, “LIPID COMPOUNDS AND LIPID NANOPARTICLE COMPOSITIONS” (SUZHOU ABOGEN BIOSCIENCES CO., LTD., priority 2022, published 2024) can be followed below.

A short description of data set [1]: Lipid nanoparticle size and polydispersity by dynamic light scattering. The data set is classed as physicochemical. The settings on record: LNP comprising the compound, hEPO mRNA; for Size (nm): cationic lipid/DSPC/cholesterol/PEG-lipid 50:10:38.5:1.5. The procedure: (§1) Briefly, a cationic lipid provided herein, DSPC, cholesterol, and PEG-lipid were solubilized in ethanol at a molar ratio of 50:10:38.5:1.5, and mRNA were diluted in 10 to 50 mM citrate buffer, pH=4. The LNPs were prepared at a total lipid to mRNA weight ratio of approximately 10:1 to 30:1 by mixing the ethanolic lipid solution with the aqueous mRNA solution at a volume ratio of 1:3 using a microfluidic apparatus, total flow rate ranging from 9-30 mL/min. Ethanol were thereby removed and replaced by DPBS using dialysis. Finally, the lipid nanoparticles were filtered through a 0.2 μm sterile filter.
(§2) Lipid nanoparticle size were determined by dynamic light scattering using a Malvern Zetasizer Nano ZS (Malvern UK) using a 173° backscatter detection mode. The encapsulation efficiency of lipid nanoparticles were determined using a Quant-it Ribogreen RNA quantification assay kit (Thermo Fisher Scientific, UK) according to the manufacturer's instructions.

Data set [2] is described as follows: Encapsulation efficiency of lipid nanoparticles (Quant-it Ribogreen RNA assay). The conditions noted are these: LNP comprising the compound, hEPO mRNA. It counts as physicochemical. The procedure:
as §1, §2

Data set [3] can be described thus: Apparent pKa of LNP formulations (TNS fluorescence assay). It counts as physicochemical. The conditions noted are these: LNP formulation, TNS assay (Table 2). The procedure: As reported in literature, the apparent pKa of LNP formulations correlates with the delivery efficiency of LNPs for nucleic acids in vivo. The apparent pKa of each formulation was determined using an assay based on fluorescence of 2-(p-toluidino)-6-napthalene sulfonic acid (TNS). LNP formulations comprising of cationic lipid/DSPC/cholesterol/DMG-PEG (50/10/38.5/1.5 mol %) in PBS were prepared as described above. TNS was prepared as a 300 μM stock solution in distilled water. LNP formulations were diluted to 0.1 mg/mL total lipid in 3 mL of buffered solutions containing 50 mM sodium citrate, 50 mM sodium phosphate, 50 mM sodium borate, and 30 mM sodium chloride where the pH ranged from 3 to 9. An aliquot of the TNS solution was added to give a final concentration of […] and following vortex mixing fluorescence intensity was measured at room temperature in a Molecular Devices Spectramax iD3 spectrometer using excitation and mission wavelengths of 325 nm and 435 nm. A sigmoidal best fit analysis was applied to the fluorescence data and the pKa value was measured as the pH giving rise to half-maximal fluorescent intensity.

Data set [4] relates to human erythropoietin (hEPO) mRNA expression. The experiment in a line: Animal Study 1: hEPO mRNA LNPs i.v. in mice, serum EPO by ELISA. It counts as in vivo. The conditions noted are these: female ICR mice, 0.5 mg/kg tail vein injection, blood e.g. 6 hours post administration; relative to MC3 LNP. The method, then:
Lipid nanoparticles comprising compounds in the following table encapsulating human erythropoietin (hEPO) mRNA were systemically administered to 6-8 week old female ICR mice (Xipuer-Bikai, Shanghai) at 0.5 mg/kg dose by tail vein injection and mice blood were sampled at specific time points (e.g., 6 hours) post administration. In addition to the aforementioned tested groups, lipid nanoparticles comprising dilinoleylmethyl-4-dimethylaminobutyrate (DLin-MC3-DMA, usually abbreviated to MC3) encapsulating hEPO mRNA were similarly administered at the same dose to age and gender comparative groups of mice as a positive control.
Mice were euthanized by CO2 overdoses after the last sampling time point. Serum were separated from total blood by centrifugation at 5000 g for 10 minutes at 4 T, snap-frozen and stored at −80 T for analysis. ELISA assay were carried out using a commercial kit (DEP00, R&D systems) according to manufacturer's instructions.
Characteristics of tested lipid nanoparticles, including EPO expression levels over MC3 measured from the tested group are listed in the table below.

Take `CCCCCCCC(=O)OCC(CCCCCCN(CCCCCO)CCCCCCC(COC(=O)CCCCCCC)COC(=O)CCCCCCC)COC(=O)CCCCCCC` [Compound 29]: in data set [1], the Polydispersity came to 0.031 and the “Size (nm)” value is reported as 80.75 nm. Besides, in data set [2], the Encapsulation efficiency worked out at 86.98%. Also, the “Apparent pKa” value in data set [3] is 6.513. The “EPO expression over MC3” value in data set [4] was “A (≥2)”.
In the same order, the values of `CCCCCCCC(=O)OCC(CCCCN(CCCCC(COC(=O)CCCCCCC)COC(=O)CCCCCCC)CCCNc1c(N(C)C)c(=O)c1=O)COC(=O)CCCCCCC` [Compound 27] are 0.073, 64.02 nm, 91.59%, 6.404 and “A (≥2)”.
Take `CCCCCCCCOC(CCCCCN(CCCCO)CCCCCC(OCCCCCCCC)OCCCCCCCC)OCCCCCCCC` [Compound 18]: in data set [1], the Polydispersity amounted to 0.057 and the “Size (nm)” value turned out to be 62.64 nm. This compound also gave an Encapsulation efficiency in data set [2] of 93.58%. In data set [3], the “Apparent pKa” value turned out to be 6.251. The “EPO expression over MC3” value in data set [4] is “B (≥1 and <2)”.
Turning to `CCCCCCCCCCCCCCCCCC(=O)OCCCCCCN(CCCCC(COC(=O)CCCCCCC)COC(=O)CCCCCCC)C1CCC(O)CC1` (stereo not shown) [Compound 36], in data set [1], the Polydispersity came out at 0.1156 and the “Size (nm)” value was determined as 78.92 nm. In data set [2], the Encapsulation efficiency worked out at 85.90%. The “Apparent pKa” value in data set [3] is given as 6.867. Also, the “EPO expression over MC3” value in data set [4] was “C (≥0.1 and <1)”.
Turning to `CCCCCCCCCC(=O)OCC(COC(=O)CCCCCCCCC)COC(=O)CCCCCN(CCO)CCCCCC(=O)OCC(COC(=O)CCCCCCCCC)COC(=O)CCCCCCCCC` [Compound 71], in data set [1], the Polydispersity is 0.098 and the “Size (nm)” value is reported as 68.05 nm. This compound yielded an Encapsulation efficiency in data set [2] of 96.34%. In addition, the “Apparent pKa” value in data set [3] was determined as 6.599. The “EPO expression over MC3” value in data set [4] is “A (≥2)”.
`CCCCC/C=C\C/C=C\CCCCCCCC(=O)OCCCCCCN(CCCCC(COC(=O)CCCCCCC)COC(=O)CCCCCCC)CCCNc1c(N(C)C)c(=O)c1=O` [Compound 42]: in data set [1], the Polydispersity came out at 0.0478 and the “Size (nm)” value was determined as 77.38 nm. Moreover, the Encapsulation efficiency in data set [2] worked out at 95.23%. Besides, the “Apparent pKa” value in data set [3] is on record as 6.657. Also, the “EPO expression over MC3” value in data set [4] is “C (≥0.1 and <1)”.
As to `CCCCCCCC/C=C\CCCCCCCC(=O)OCCCCCCN(CCCCC(COC(=O)CCCCCCC)COC(=O)CCCCCCC)C1CCC(O)CC1` (stereo not shown) [Compound 38], in data set [1], the Polydispersity was 0.06385 and the “Size (nm)” value was 100.3 nm. The same compound gave an Encapsulation efficiency in data set [2] of 87.69%. Moreover, the “Apparent pKa” value in data set [3] is reported as 6.799. Moreover, the “EPO expression over MC3” value in data set [4] was “B (≥1 and <2)”.
On to `CCCCCCCC(=O)OCC(CCCCN(CCCCC(COC(=O)CCCCCCC)COC(=O)CCCCCCC)C1CC(CO)(CO)C1)COC(=O)CCCCCCC` [Compound 61], for which, in data set [1], the Polydispersity came out at 0.066 and the “Size (nm)” value was 72.95 nm. The same compound yielded an Encapsulation efficiency in data set [2] of 91.26%. Moreover, the “Apparent pKa” value in data set [3] is given as 7.32. Moreover, the “EPO expression over MC3” value in data set [4] was “C (≥0.1 and <1)”.
Turning to `CCCCCCCC(=O)OCC(CCCCN(CCCCC(COC(=O)CCCCCCC)COC(=O)CCCCCCC)[C@H]1CC[C@H](CO)CC1)COC(=O)CCCCCCC` [Compound 59], in data set [1], the Polydispersity is 0.066 and the “Size (nm)” value is given as 168.4 nm. Besides, the Encapsulation efficiency in data set [2] is reported as 72.86%. Besides, the “Apparent pKa” value in data set [3] came out at 6.633. In addition, the “EPO expression over MC3” value in data set [4] was “A (≥2)”.
For the compound `CCCCCCCCOC(CCCCCN(CCCCCC(OCCCCCCCC)OCCCCCCCC)CCOCCO)OCCCCCCCC` [Compound 17], in data set [1], the Polydispersity came to 0.056 and the “Size (nm)” value is 79.67 nm. This compound also gave an Encapsulation efficiency in data set [2] of 96.64%. Moreover, in data set [3], the “Apparent pKa” value was 6.189. The “EPO expression over MC3” value in data set [4] is “C (≥0.1 and <1)”.
`CCCCCCCC(=O)OCC(COC(=O)CCCCCCC)COC(=O)CCCCCN(CCCCO)CCCCCC(=O)OCC(COC(=O)CCCCCCC)COC(=O)CCCCCCC` [Compound 67]: in data set [1], the Polydispersity was determined as 0.026 and the “Size (nm)” value was 87.2 nm. This compound also gave an Encapsulation efficiency in data set [2] of 94.95%. Also, in data set [3], the “Apparent pKa” value came out at 6.705. Besides, in data set [4], the “EPO expression over MC3” value was “A (≥2)”.
With `CCCCCCCC(=O)OCC(CCCCN(CCCCC(COC(=O)CCCCCCC)COC(=O)CCCCCCC)CCCNc1c(N(CC)CC)c(=O)c1=O)COC(=O)CCCCCCC` [Compound 31], in data set [1], the Polydispersity is on record as 0.073 and the “Size (nm)” value is given as 72.36 nm. In data set [2], the Encapsulation efficiency came out at 88.17%. In addition, the “Apparent pKa” value in data set [3] worked out at 6.221. Also, in data set [4], the “EPO expression over MC3” value is given as “A (≥2)”.
The corresponding values for `CCCCCCCCC(CCCCCC)COC(=O)CCCCCN(CCO)CCCCCC(=O)OCC(CC)(COC(=O)CCCCCCC)COC(=O)CCCCCCC` (stereo not shown) [Compound 84] are 0.022, 72.82 nm, 94.81%, 6.355 and “A (≥2)”.
As to `CCCCCCCCOC(CCCCCN(CCO)CCCCCC(OCCCCCCCC)OCCCCCCCC)OCCCCCCCC` [Compound 15], in data set [1], the Polydispersity came out at 0.096 and the “Size (nm)” value is 77.33 nm. The compound also displayed an Encapsulation efficiency in data set [2] of 94.67%. In addition, the “Apparent pKa” value in data set [3] is on record as 6.219. Further, the “EPO expression over MC3” value in data set [4] was “C (≥0.1 and <1)”.
For the compound `CCCCCCCCCCCCCCCCCC(=O)OCCCCCCN(CCO)CCCCC(COC(=O)CCCCCCC)COC(=O)CCCCCCC` [Compound 21], in data set [1], the Polydispersity amounted to 0.017 and the “Size (nm)” value turned out to be 73.11 nm. Also, the Encapsulation efficiency in data set [2] is reported as 93.42%. In addition, in data set [3], the “Apparent pKa” value was 6.962. Moreover, in data set [4], the “EPO expression over MC3” value is “B (≥1 and <2)”.
Consider `CCCCCCCCC(CCCCCC)CNC(=O)CCCCCN(CCCCC(COC(=O)CCCCCCC)COC(=O)CCCCCCC)CCC1(O)CCCCC1` (stereo not shown) [Compound 63], for which, in data set [1], the Polydispersity is given as 0.159 and the “Size (nm)” value is 130.62 nm. This compound yielded an Encapsulation efficiency in data set [2] of 90.10%. Moreover, in data set [3], the “Apparent pKa” value came out at 6.297. In data set [4], the “EPO expression over MC3” value was “C (≥0.1 and <1)”.
Take `CCCCC/C=C\C/C=C\CCCCCCCC(=O)OCCCCCCN(CCO)CCCCC(COC(=O)CCCCCCC)COC(=O)CCCCCCC` [Compound 22]: in data set [1], the Polydispersity is on record as 0.051 and the “Size (nm)” value was found to be 79.16 nm. For the same compound, the Encapsulation efficiency in data set [2] is recorded as 89.98%. Moreover, in data set [3], the “Apparent pKa” value came to 6.748. In addition, in data set [4], the “EPO expression over MC3” value is reported as “A (≥2)”.
The corresponding values for `CCCCCCCC(=O)OCC(CCCCN(CCCCC(COC(=O)CCCCCCC)COC(=O)CCCCCCC)[C@H]1C=C[C@@H](CO)C1)COC(=O)CCCCCCC` [Compound 48] are 0.027, 92.53 nm, 84.12%, 6.143 and “A (≥2)”.
As for `CCCCCCCCCCCCCCCC(=O)OCCCCCCN(CCO)CCCCC(COC(=O)CCCCCCC)COC(=O)CCCCCCC` [Compound 20], in data set [1], the Polydispersity stood at 0.078 and the “Size (nm)” value was determined as 72.72 nm. The same compound yielded an Encapsulation efficiency in data set [2] of 91.22%. In data set [3], the “Apparent pKa” value was 6.889. Also, the “EPO expression over MC3” value in data set [4] was “A (≥2)”.
In the same order, the values of `CCCCCCCCCCC(=O)OCC(COC(=O)CCCCCCCCCC)COC(=O)CCCCCN(CCO)CCCCCC(=O)OCC(COC(=O)CCCCCCCCCC)COC(=O)CCCCCCCCCC` [Compound 72] are 0.111, 72.07 nm, 96.28%, 6.728 and “A (≥2)”.
